One assay concerns the target T1, Alpha-1A adrenergic receptor (Homo sapiens, UniProt P35348).
T1 sequence (P35348 whole entry): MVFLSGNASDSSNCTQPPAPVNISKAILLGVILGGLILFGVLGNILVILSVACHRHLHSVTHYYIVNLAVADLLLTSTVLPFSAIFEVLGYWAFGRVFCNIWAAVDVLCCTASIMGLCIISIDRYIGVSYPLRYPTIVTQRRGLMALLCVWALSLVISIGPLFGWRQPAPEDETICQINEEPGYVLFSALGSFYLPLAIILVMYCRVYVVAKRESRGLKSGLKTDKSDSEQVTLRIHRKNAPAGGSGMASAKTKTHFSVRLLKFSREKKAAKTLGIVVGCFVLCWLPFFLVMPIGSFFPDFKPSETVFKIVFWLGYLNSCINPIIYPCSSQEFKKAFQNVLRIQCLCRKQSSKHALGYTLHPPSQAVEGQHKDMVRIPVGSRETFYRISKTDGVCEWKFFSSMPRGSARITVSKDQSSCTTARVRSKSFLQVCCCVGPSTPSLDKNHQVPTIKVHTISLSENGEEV
Nature of the assay: Binding constant measured against Alpha-1A adrenergic receptor in human prostate; ++:moderately active. The class given is tissue-based, Prostate gland.
In turn, `CCOC(=O)C1CCC(=O)N1CC(=O)CCN1CCN(c2ccccc2OC(C)C)CC1` (stereo not given) had an inhibition constant (Ki) of 59 nM.
The molecule `N=C(Nc1ccccc1)N1CCN(/C=C2/N=C(c3cccc4ccccc34)OC2=O)CC1` registered a Ki of 41 nM.
As to `COc1ccc(Cl)cc1N1CCN(CCCNc2nccc(C(N)=O)n2)CC1`, the affinity, expressed as Ki, was 2 nM.
The molecule `C[C@@]1(O)C(=O)N(CCCN2CCN(c3ccc(F)cc3OCC(F)(F)F)CC2)C(=O)N[C@@H]1O` displayed a Ki of 5 nM. This Ki is about 2.5-fold higher than that of the molecule before.
For the molecule `COc1ccccc1N1CCN(CCN2C(=O)c3ccccc3C(C)(C)C2=O)CC1`, affinity was put at a Ki of 1 nM.
Take `COc1cccc(OC)c1OCCNCC1Oc2ccccc2OC1c1ccc(C)cc1` (stereo not given): the affinity corresponds to a Ki of 4.1 nM. This Ki is about 4.1-fold higher than that of the molecule before.
Take `COc1ccccc1N1CCN(CC(O)COc2cccc3ccccc23)CC1` (stereo not given) [NAFTOPIDIL]: the Ki stood at 3.7 nM.
Still for that read-out and setting: under `CC(C)Oc1ccccc1N1CCN(CCNC(=O)CN2CCCCC2=O)CC1` [RWJ-38063] stands 9.3 nM; under `CC(C)Oc1ccccc1N1CCN(CCNC(=O)CN2CCCCCC2=O)CC1` [RWJ-68157], 22 nM.
`O=C(CCCN1CCC2(CC1)C(=O)NCN2c1ccccc1)c1ccc(F)cc1` [SPIPERONE] yielded an inhibition constant (Ki) of 7.9 nM.

For a further assay, the target named is T1, Alpha-1A adrenergic receptor. The assay is described as follows: Binding constant measured against Alpha-1A adrenergic receptor in human prostate; +++:highly active. The format is tissue-based, Prostate gland.
Molecule `COc1cccc(OC)c1OCCNC[C@H]1CSc2ccccc2O1` yielded a Ki of 0.2 nM.
Still for that read-out and setting: the same measure for `COCC1=C(C(=O)OC)[C@H](c2ccc(F)c(F)c2)N(C(=O)NCCCN2CCC(c3ccccn3)CC2)C(=O)N1`: 0.36 nM; for `COc1cccc(OC)c1OCCNC[C@@H]1Oc2ccccc2O[C@H]1c1ccc(C)cc1`: 0.35 nM.
Still for that read-out and setting: the same measure for `CC(C)(Cc1c[nH]c2ccc(Cl)cc12)NCCOc1ccccc1OCC1CC1`: 0.6 nM; for `CC(C)Oc1ccccc1N1CCN(CCCNC(=O)CN2CCCCC2=O)CC1` [RWJ-69736]: 0.65 nM.
`C[C@H](Cc1cc2c(c(C(N)=O)c1)N(CCCO)CC2)NCCOc1ccccc1OCC(F)(F)F` [SILODOSIN] returned an inhibitory constant (Ki) of 0.036 nM.

The target is the same in the next assay. Nature of the assay: Binding constant measured against Alpha-1A adrenergic receptor in human prostate; +:inactive. The class given is tissue-based, Prostate gland.
`COc1cc2c3c(c1OC)-c1cc4c(cc1C[C@@H]3N(C)CC2)OCO4`: the inhibition constant (Ki) is 430 nM.
Still for that read-out and setting: under `N=C(CC(O)COc1ccccc1-c1ccccc1)N1CCCCC1` (stereo not given) stands 2500 nM; under `CCS(=O)(=O)Nc1cccc(C(=C2CCCCC2)c2c[nH]cn2)c1`, 490 nM.
Same read-out and setting: under `C[C@H](CN1CCN(c2cc(F)c(F)cc2F)CC1)N1C(=O)CC2(CCCC2)CC1=O` stands 290 nM.

The record behind these values is ChEMBL document CHEMBL1144284, “Pharmacophore identification of alpha(1A)-adrenoceptor antagonists” (Bioorg Med Chem Lett, 2005).
